Results on one compound are retold here after PMC9658835, “Acetophenone-Based 3,4-Dihydropyrimidine-2(1H)-Thione as Potential Inhibitor of Tyrosinase and Ribonucleotide Reductase: Facile Synthesis, Crystal Structure, In-Vitro and In-Silico Investigations” (International Journal of Molecular Sciences, 2022).

In the assay the target is mushroom tyrosinase. As to the kind of experiment: mushroom tyrosinase (Sigma) enzyme inhibition assay. It is filed as biochemical.

The term IC50 denotes the concentration that inhibits the measured activity by half. Lower therefore signals greater potency in that assay. Compound `CC(=O)c1ccc(N2C(=S)NC(C)(C)C=C2C)cc1` [compound 4, 1-(4-(4,4,6-trimethyl-2-thioxo-3,4-dihydropyrimidin-1(2H)-yl)phenyl)ethan-1-one] displayed a half-inhibitory concentration (IC50) of 1.98 µM.
